Measurements from US20230265116A1, “DEGRADATION OF (EGFR) BY CONJUGATION OF EGFR INHIBITORS WITH E3 LIGASE LIGAND AND METHODS OF USE” (BEIGENE, LTD., priority 2020, published 2023).

How the values were obtained:
Type in all cases: cell-based
[1] = target: T1, EGFR L858R/C797S (BaF3 LC cells) (Homo sapiens, UniProt P00533, C797S/L858R); test: EGFR degradation HTRF assay, BaF3 LC cells; details: BaF3 LC, 16h treatment; for DC50: read-out: BaF3 LC DC50; for Dmax: maximum percentage of degradation, read-out: BaF3 LC Dmax (%)
T1 construct: expressed in transfected cells; host or cells: BaF3
T1 sequence (P00533 25-1210 C797S/L858R): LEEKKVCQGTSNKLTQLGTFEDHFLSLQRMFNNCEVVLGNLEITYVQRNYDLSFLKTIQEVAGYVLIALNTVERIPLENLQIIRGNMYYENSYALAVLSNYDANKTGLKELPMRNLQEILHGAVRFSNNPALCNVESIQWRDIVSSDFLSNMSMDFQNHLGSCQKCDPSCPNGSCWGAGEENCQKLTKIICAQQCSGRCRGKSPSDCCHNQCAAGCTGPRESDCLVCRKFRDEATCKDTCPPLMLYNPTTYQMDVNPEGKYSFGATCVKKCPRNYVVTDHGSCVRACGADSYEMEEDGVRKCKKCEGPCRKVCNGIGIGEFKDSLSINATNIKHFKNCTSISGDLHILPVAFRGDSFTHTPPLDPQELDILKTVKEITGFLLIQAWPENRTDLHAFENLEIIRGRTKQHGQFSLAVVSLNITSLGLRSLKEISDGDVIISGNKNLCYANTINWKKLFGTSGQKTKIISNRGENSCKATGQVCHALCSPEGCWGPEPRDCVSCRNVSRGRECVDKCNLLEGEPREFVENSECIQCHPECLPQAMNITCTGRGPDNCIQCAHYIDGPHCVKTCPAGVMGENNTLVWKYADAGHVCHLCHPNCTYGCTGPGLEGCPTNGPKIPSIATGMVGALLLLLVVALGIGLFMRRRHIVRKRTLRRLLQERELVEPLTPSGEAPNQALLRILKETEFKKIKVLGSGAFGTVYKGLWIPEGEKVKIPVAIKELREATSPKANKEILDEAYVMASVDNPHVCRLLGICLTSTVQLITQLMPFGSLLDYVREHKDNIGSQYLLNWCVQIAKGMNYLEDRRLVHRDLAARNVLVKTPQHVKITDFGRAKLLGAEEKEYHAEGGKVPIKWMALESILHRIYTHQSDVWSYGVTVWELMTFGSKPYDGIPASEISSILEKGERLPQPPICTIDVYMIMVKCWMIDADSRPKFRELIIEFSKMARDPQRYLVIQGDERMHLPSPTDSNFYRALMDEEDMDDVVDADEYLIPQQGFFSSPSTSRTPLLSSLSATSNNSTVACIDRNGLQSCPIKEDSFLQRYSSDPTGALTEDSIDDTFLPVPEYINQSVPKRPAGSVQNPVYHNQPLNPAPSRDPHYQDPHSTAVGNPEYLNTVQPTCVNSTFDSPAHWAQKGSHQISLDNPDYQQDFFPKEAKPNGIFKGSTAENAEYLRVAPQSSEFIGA

[2] = tested on: EGFR Del19/C797S (H1975-clone #23); test: EGFR degradation HTRF assay, H1975-clone #23 DC cells; details: 16h treatment; for H1975 #23 DC Dmax (%): maximum percentage of degradation; for DC50: H1975 #23 DC, read-out: H1975 #23 DC DC50
In short: (§1)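 Engineered H1975 lines (lentiviral mutant EGFR, endogenous EGFR knocked out, single-clone verified); 16h compound, 37° C., 5% CO2, 0.2% DMSO; 8-point 5-fold series from 10 uM final. HTRF lysate read; % degradation vs DMSO, four-parameter fit → DC50, Dmax.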

[3] = target: T2, EGFR L858R/T790M/C797S (BaF3-LTC cells) (Homo sapiens, UniProt P00533, C797S/L858R/T790M); test: EGFR degradation HTRF assay, BaF3-LTC cells; details: BaF3-LTC cells; for DC50: EGFR degradation, IC50 (DC50) from curve fit, read-out: DC50(nM) BaF3-LTC; for Dmax: maximum percentage of inhibition (degradation), read-out: Dmax (%) BaF3-LTC
T2 construct: expressed in transfected cells; host or cells: BaF3
T2 sequence (P00533 25-1210 T790M/C797S/L858R): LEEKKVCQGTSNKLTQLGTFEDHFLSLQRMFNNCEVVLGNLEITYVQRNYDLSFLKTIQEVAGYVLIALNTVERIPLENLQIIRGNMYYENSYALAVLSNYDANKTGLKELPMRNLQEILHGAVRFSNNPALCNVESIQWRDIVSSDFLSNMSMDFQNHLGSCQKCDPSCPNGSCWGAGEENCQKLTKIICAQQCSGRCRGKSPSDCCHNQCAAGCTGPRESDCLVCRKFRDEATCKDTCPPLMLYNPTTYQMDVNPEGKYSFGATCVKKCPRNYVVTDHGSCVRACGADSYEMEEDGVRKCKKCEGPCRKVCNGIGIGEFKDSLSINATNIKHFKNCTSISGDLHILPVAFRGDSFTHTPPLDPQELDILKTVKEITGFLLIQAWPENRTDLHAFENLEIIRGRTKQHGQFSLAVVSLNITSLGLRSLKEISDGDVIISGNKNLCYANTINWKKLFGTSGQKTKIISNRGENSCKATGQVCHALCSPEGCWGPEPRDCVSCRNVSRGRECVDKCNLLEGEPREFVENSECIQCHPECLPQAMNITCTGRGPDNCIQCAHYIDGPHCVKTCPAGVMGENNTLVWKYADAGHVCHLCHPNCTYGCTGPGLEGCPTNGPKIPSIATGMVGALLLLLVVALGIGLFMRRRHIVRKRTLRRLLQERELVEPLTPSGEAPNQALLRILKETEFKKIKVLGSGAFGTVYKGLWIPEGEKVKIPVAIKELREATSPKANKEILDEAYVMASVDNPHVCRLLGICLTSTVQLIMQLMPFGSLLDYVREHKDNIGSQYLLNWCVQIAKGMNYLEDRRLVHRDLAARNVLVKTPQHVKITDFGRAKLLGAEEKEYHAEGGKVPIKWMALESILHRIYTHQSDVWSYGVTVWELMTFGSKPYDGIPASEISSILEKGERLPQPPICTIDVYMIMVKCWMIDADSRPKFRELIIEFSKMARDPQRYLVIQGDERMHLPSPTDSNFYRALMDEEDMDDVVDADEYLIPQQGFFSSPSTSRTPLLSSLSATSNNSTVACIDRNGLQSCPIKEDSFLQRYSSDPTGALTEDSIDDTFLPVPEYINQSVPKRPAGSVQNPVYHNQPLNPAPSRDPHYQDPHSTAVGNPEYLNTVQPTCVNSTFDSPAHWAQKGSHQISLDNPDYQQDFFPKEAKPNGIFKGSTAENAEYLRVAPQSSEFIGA
In short: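 Cells treated 16 h at 37 °C, 5% CO2 in medium with 0.2% DMSO; top final concentration 10 uM, 5-fold dilution, 8 doses. Lysates read by HTRF (665/620 nm); degradation % versus DMSO high control, DC50 from four-parameter fit, Dmax as maximal degradation.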

[4] = tested on: EGFR Del19/T790M/C797S (H1975-clone #28); test: EGFR degradation HTRF assay, H1975-clone #28 DTC cells; details: H1975 # 28 DTC cells; for DC50: EGFR degradation, IC50 (DC50) from curve fit, read-out: DC50(nM) H1975 # 28 DTC; for Dmax (%) H1975 # 28 DTC: maximum percentage of inhibition (degradation)
In short: as §1

Row | SMILES | DC50 [1] [nM] | DC50 [2] [nM] | DC50 [3] [nM] | DC50 [4] [nM] | Dmax [1] [%] | Dmax [3] [%] | H1975 #23 DC Dmax (%) [2] [%] | Dmax (%) H1975 # 28 DTC [4] [%]
1 | CCc1ccc2c(P(C)(C)=O)c(Nc3nc(Nc4cc(CC)c(N5CCC(N6CCN(CCc7ccc8c(c7)oc(=O)n8C7CCC(=O)NC7=O)CC6)CC5)cc4OC)ncc3Br)ccc2n1 (centres unmarked) [Example 491, 3-(6-(2-(4-(1-(4-((5-bromo-4-((5-(dimethylphosphoryl)-2-ethylquinolin-6-yl)amino)pyrimidin-2-yl)amino)-2-ethyl-5-methoxyphenyl)piperidin-4-yl)piperazin-1-yl)ethyl)-2-oxobenzo[d]oxazol-3(2H)-yl)piperidine-2,6-dione] | 2.34 | 0.85 | 2.72 | 0.647 |  |  | 58.85 | 78.48
2 | CCOc1cc(N2CCC(N3CCN(CCc4cc(F)c([C@H]5CCC(=O)NC5=O)c(F)c4)CC3)CC2)c(CC)cc1Nc1ncc(Br)c(Nc2cc(F)c3nc(C)ccc3c2P(C)(C)=O)n1 [Example 534, (R)-3-(4-(2-(4-(1-(4-((5-bromo-4-((5-(dimethylphosphoryl)-8-fluoro-2-methylquinolin-6-yl)amino)pyrimidin-2-yl)amino)-5-ethoxy-2-ethylphenyl)piperidin-4-yl)piperazin-1-yl)ethyl)-2,6-difluorophenyl)piperidine-2,6-dione] | 10.2 | 2.16 | 4.2 | 0.749 | 90.2 | 93.7 | 80.71 | 83.48
3 | CCOc1cc(N2CCC(N3CCN(CCc4cc(F)c([C@H]5CCC(=O)NC5=O)c(F)c4)CC3)CC2)c(CC)cc1Nc1ncc(Br)c(Nc2cc(F)c3nc(CC)ccc3c2P(C)(C)=O)n1 [Example 486, (R)-3-(4-(2-(4-(1-(4-((5-bromo-4-((5-(dimethylphosphoryl)-2-ethyl-8-fluoroquinolin-6-yl)amino)pyrimidin-2-yl)amino)-5-ethoxy-2-ethylphenyl)piperidin-4-yl)piperazin-1-yl)ethyl)-2,6-difluorophenyl)piperidine-2,6-dione] | 16.6 | 4.73 | 5.83 | 0.802 |  |  | 80.02 | 85.73
4 | CCOc1cc(N2CCC(N3CCN(CC4CN(c5cc(F)cc6c5oc(=O)n6C5CCC(=O)NC5=O)C4)CC3)CC2)c(CC)cc1Nc1ncc(Br)c(Nc2ccc3nc(CC)ccc3c2P(C)(C)=O)n1 (centres unmarked) [Example 479, 3-(7-(3-((4-(1-(4-((5-bromo-4-((5-(dimethylphosphoryl)-2-ethylquinolin-6-yl)amino)pyrimidin-2-yl)amino)-5-ethoxy-2-ethylphenyl)piperidin-4-yl)piperazin-1-yl)methyl)azetidin-1-yl)-5-fluoro-2-oxobenzo[d]oxazol-3(2H)-yl)piperidine-2,6-dione] | 20.3 | 4.91 | 7.8 | 2.81 | 82.7 | 88.8 | 76.53 | 95.6
5 | CCOc1cc(N2CCC(N3CCN(CCCc4cc(F)cc5c4oc(=O)n5C4CCC(=O)NC4=O)CC3)CC2)c(CC)cc1Nc1ncc(Br)c(Nc2ccc3nc(CC)ccc3c2P(C)(C)=O)n1 (centres unmarked) [Example 496, 3-(7-(3-(4-(1-(4-((5-bromo-4-((5-(dimethylphosphoryl)-2-ethylquinolin-6-yl)amino)pyrimidin-2-yl)amino)-5-ethoxy-2-ethylphenyl)piperidin-4-yl)piperazin-1-yl)propyl)-5-fluoro-2-oxobenzo[d]oxazol-3(2H)-yl)piperidine-2,6-dione] | 2.23 | 0.787 | 2.3 | 0.92 | 91.3 | 85.5 | 95.59 | 75.32
6 | CCOc1cc(N2CCC(N3CCN(CCc4cc(F)c([C@H]5CCC(=O)NC5=O)c(F)c4)CC3)CC2)c(CC)cc1Nc1ncc(Br)c(Nc2ccc3nc(CC)ncc3c2P(C)(C)=O)n1 [Example 460, (R)-3-(4-(2-(4-(1-(4-((5-bromo-4-((5-(dimethylphosphoryl)-2-ethylquinazolin-6-yl)amino)pyrimidin-2-yl)amino)-5-ethoxy-2-ethylphenyl)piperidin-4-yl)piperazin-1-yl)ethyl)-2,6-difluorophenyl)piperidine-2,6-dione] | 37.3 | 3.11 | 16.4 | 2.43 |  |  | 82.75 | 86
7 | CCOc1cc(N2CCC(N3CCN(CCc4cc(F)c(F)c5c4oc(=O)n5C4CCC(=O)NC4=O)CC3)CC2)c(CC)cc1Nc1ncc(Br)c(Nc2ccc3nc(CC)ccc3c2P(C)(C)=O)n1 (centres unmarked) [Example 474, 3-(7-(2-(4-(1-(4-((5-bromo-4-((5-(dimethylphosphoryl)-2-ethylquinolin-6-yl)amino)pyrimidin-2-yl)amino)-5-ethoxy-2-ethylphenyl)piperidin-4-yl)piperazin-1-yl)ethyl)-4,5-difluoro-2-oxobenzo[d]oxazol-3(2H)-yl)piperidine-2,6-dione] | 30.4 | 2.65 | 12 | 1.15 | 81.1 | 79.2 | 68.97 | 73.43

Further lines, with some results ahead:

Row | DC50 [1] [nM] | DC50 [2] [nM] | DC50 [3] [nM] | DC50 [4] [nM] | Dmax [1] [%] | Dmax [3] [%] | SMILES | H1975 #23 DC Dmax (%) [2] [%] | Dmax (%) H1975 # 28 DTC [4] [%]
8 | 3.97 | 1.45 | 3.86 | 2.48 |  |  | CCOc1cc(N2CCC(N3CCN(CCc4cccc5c4n(CC)c(=O)n5C4CCC(=O)NC4=O)CC3)CC2)c(CC)cc1Nc1ncc(Br)c(Nc2cc(F)c3nc(CC)ccc3c2P(C)(C)=O)n1 (centres unmarked) [Example 643, 3-(4-(2-(4-(1-(4-((5-bromo-4-((5-(dimethylphosphoryl)-2-ethyl-8-fluoroquinolin-6-yl)amino)pyrimidin-2-yl)amino)-5-ethoxy-2-ethylphenyl)piperidin-4-yl)piperazin-1-yl)ethyl)-3-ethyl-2-oxo-2,3-dihydro-1H-benzo[d]imidazol-1-yl)piperidine-2,6-dione] | 73.67 | 65.15
9 | 3.8 | 4.74 | 3.21 | 1.81 |  |  | CCOc1cc(N2CCC(N3CCN(CCc4cccc5c4C(C)(C)C(=O)N5C4CCC(=O)NC4=O)CC3)CC2)c(CC)cc1Nc1ncc(Br)c(Nc2ccc3nc(CC)ccc3c2P(C)(C)=O)n1 (centres unmarked) [Example 572, 3-(4-(2-(4-(1-(4-((5-bromo-4-((5-(dimethylphosphoryl)-2-ethylquinolin-6-yl)amino)pyrimidin-2-yl)amino)-5-ethoxy-2-ethylphenyl)piperidin-4-yl)piperazin-1-yl)ethyl)-3,3-dimethyl-2-oxoindolin-1-yl)piperidine-2,6-dione] | 69.16 | 83.86
10 | 20.3 | 2.2 | 4.34 | 0.844 |  |  | CCc1ncc2c(P(C)(C)=O)c(Nc3nc(Nc4cc(CC)c(N5CCC(N6CCN(CCc7cc(F)c([C@H]8CCC(=O)NC8=O)c(F)c7)CC6)CC5)cc4OC)ncc3Br)ccc2n1 [Example 589, (R)-3-(4-(2-(4-(1-(4-((5-bromo-4-((5-(dimethylphosphoryl)-2-ethylquinazolin-6-yl)amino)pyrimidin-2-yl)amino)-2-ethyl-5-methoxyphenyl)piperidin-4-yl)piperazin-1-yl)ethyl)-2,6-difluorophenyl)piperidine-2,6-dione] | 84.51 | 86.23
11 | 26.9 | 5.38 | 12 | 0.364 |  |  | CCOc1cc(N2CCC(N3CCN(CCc4c(F)ccc5c4n(CC)c(=O)n5C4CCC(=O)NC4=O)CC3)CC2)c(CC)cc1Nc1ncc(Br)c(Nc2ccc3c(=O)n(CC)ncc3c2P(C)(C)=O)n1 (centres unmarked) [Example 559, 3-(4-(2-(4-(1-(4-((5-bromo-4-((5-(dimethylphosphoryl)-2-ethyl-1-oxo-1,2-dihydrophthalazin-6-yl)amino)pyrimidin-2-yl)amino)-5-ethoxy-2-ethylphenyl)piperidin-4-yl)piperazin-1-yl)ethyl)-3-ethyl-5-fluoro-2-oxo-2,3-dihydro-1H-benzo[d]imidazol-1-yl)piperidine-2,6-dione] | 73.67 | 80.93
12 | 20.1 | 2.43 | 83.7 | 6.28 |  |  | CCc1cc(Nc2ncc(Br)c(Nc3ccc4c(=O)n(CC)ncc4c3P(C)(C)=O)n2)c(OC)cc1N1CCC(N2CCN(CCc3cc(F)c([C@H]4CCC(=O)NC4=O)c(F)c3)CC2)CC1 [Example 753, (R)-3-(4-(2-(4-(1-(4-((5-bromo-4-((5-(dimethylphosphoryl)-2-ethyl-1-oxo-1,2-dihydrophthalazin-6-yl)amino)pyrimidin-2-yl)amino)-2-ethyl-5-methoxyphenyl)piperidin-4-yl)piperazin-1-yl)ethyl)-2,6-difluorophenyl)piperidine-2,6-dione] | 78.45 | 87.49
